Results on 1 molecule are retold here after patent EP3184514A1, “AUTOPHAGY INHIBITORS” (Deutsches Krebsforschungszentrum, priority 2015, dated 2017).

Test [1] deals with T1, LC3B (Homo sapiens, UniProt Q9GZQ8).
T1 construct: made in house; host or cells: E. coli Rosetta (DE3)
Kind of test: AlphaScreen interaction displacement assay (GST-LC3B / biotin-LIRtide). Format: binding. The following applies: Table 1-a; n.e. means no effect; read-out: LC3B inhibition cell free IC50. As for the experimental part:
The AlphaScreen assay contained 50 mM Tris (pH 7.5), 100 mM NaCl, 0.01% Tween 20, 2 mM DTT, 1 % DMSO and 2-30 nM GST-LC3B and biotin-LIRtide 2-30 nM. The concentrations of GST-LC3B and biotin-LIRtide were experimentally chosen from a cross-titration assay exploring the different combinations of for each batch of protein used and when a new batch of buffer was prepared.
A gene encoding for human LC3B protein inserted in a pET-GST expression vector was used as a template. Rosetta (DE3) competent cells were transformed by started procedure, plated on an LB agar plate with ampicillin (100 µg/ml) and left overnight at 37 °C. Overnight culture was prepared from a single colony and shaken at 180 rpm at 37 °C. LB medium with ampicillin was inoculated with overnight culture (10 ml per 500 ml of LB) and shaken until the optical density at 600 nm (OD600) reached a value of approximately 0.6. Protein expression was then induced with 400 µM IPTG and further incubated for 4 hours. Bacterial culture was centrifuged for 20 minutes at 6000 rpm at 4 °C. The pellet was then resuspended in lysis buffer (20 mM TRIS-HCl pH 7.5, 10 mM EDTA, 5 mM EGTA, 150 mM NaCl, 0.5 % NP40, 1 % Triton X-100, 1 mM DTT, 2 mg/ml lysozyme, 0.05 U/µl benzonase, 1x protease inhibitor cocktail). Lysate was then stored at -20 °C over night. Sample was thawed in water bath and sonicated on ice (40 % amplitude, 30 seconds pulse/30 seconds pause cycle). Lysate was centrifuged at 10000xg at 4 °C for half an hour. Meanwhile, 500 µl of glutathione sepharose beads was equilibrated with lysis buffer and then added to the supernatant. The mixture was incubated and rotated at room temperature for 2 hours. After binding of the protein to the beads, beads were spun down at 500xg at 4 °C for 5 minutes. Pellet was then washed with cold wash buffer at least four times (20 mM Tris-HCl pH 7.5, 10 mM EDTA, 5 mM EGTA, 150 mM NaCl, 1 mM DTT), dried and stored in 5 % glycerol at 4 °C.
(In Alpha technology, singlet oxygen from a donor bead excites a nearby acceptor bead.)

The test system of test [2] is LC3B. The experiment in a line: NMR titration (1H-15N HSQC, chemical shift perturbations). Format: binding. To be noted: 10 fold excess of compound, before prolonged incubation.
The subject of test [3] is U2OS cells. The experiment in a line: MTT cell viability assay. It counts as cell-based, Human. The protocol: The MTT assay is a colorimetric assay for assessing cell viability. NAD(P)H-dependent cellular oxidoreductase enzymes in metabolic active cells reduce the tetrazolium dye MTT 3-(4,5-dimethylthiazol-2-yl)-2,5-diphenyltetrazolium bromide to its insoluble purple formazan. All cell types were seeded in 96 well plates and left over night for attachment. Next day, cells were treated with 100 µM compound I-1 for 24, 48, 72, and 96 hours. For controls, 1 µM staurosporine and 100 nM BafA1 were used. The assay was performed according to manufacturer's instructions and the absorbance of the formazan product was measured at 595 nm.

Broadly, the IC50 is the concentration that inhibits the measured activity by half.

`Brc1ccc(CSC2=NCN(Cc3cccnc3)CN2)cc1` [Compound I-1, 6-((4-bromobenzyl)thio)-3-(pyridin-3-ylmethyl)-1,2,3,4-tetrahydro-1,3,5-triazine]: in test [1], the IC50 was 6 µM. Moreover, the “chemical shift perturbations (CSP) of LC3B” value in test [2] is listed as “does not induce any significant CSPs”. In test [3] (72 and 96 hours), the cell survival entry is “almost no cell survival”. In test [3] (24 hours, 100 µM), the cell viability entry is “decreased viability”.
